Data set [1] deals with T1, airway epithelial sodium currents (sodium channel) (UniProt A0A8I3MKE6+A0A8I3Q679+Q95165).
T1 sequence (A0A8I3MKE6 1-646): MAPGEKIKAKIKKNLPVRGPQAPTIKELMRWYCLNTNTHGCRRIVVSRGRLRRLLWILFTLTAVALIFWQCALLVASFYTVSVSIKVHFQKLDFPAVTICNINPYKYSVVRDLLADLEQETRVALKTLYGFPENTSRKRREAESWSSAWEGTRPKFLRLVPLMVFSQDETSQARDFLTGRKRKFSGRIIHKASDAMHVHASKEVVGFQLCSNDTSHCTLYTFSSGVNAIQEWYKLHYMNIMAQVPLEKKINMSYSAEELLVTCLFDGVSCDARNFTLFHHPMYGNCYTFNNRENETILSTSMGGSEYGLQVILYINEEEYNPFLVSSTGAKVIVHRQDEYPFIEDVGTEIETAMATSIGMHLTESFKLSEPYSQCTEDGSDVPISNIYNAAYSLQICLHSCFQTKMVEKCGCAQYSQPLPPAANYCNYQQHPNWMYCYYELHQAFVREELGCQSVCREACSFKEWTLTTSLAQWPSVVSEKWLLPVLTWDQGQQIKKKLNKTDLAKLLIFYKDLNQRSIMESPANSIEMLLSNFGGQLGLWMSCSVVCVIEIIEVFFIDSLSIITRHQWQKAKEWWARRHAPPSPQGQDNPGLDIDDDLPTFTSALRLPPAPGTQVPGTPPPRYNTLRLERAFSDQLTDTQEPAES
T1 sequence (A0A8I3Q679 1-649): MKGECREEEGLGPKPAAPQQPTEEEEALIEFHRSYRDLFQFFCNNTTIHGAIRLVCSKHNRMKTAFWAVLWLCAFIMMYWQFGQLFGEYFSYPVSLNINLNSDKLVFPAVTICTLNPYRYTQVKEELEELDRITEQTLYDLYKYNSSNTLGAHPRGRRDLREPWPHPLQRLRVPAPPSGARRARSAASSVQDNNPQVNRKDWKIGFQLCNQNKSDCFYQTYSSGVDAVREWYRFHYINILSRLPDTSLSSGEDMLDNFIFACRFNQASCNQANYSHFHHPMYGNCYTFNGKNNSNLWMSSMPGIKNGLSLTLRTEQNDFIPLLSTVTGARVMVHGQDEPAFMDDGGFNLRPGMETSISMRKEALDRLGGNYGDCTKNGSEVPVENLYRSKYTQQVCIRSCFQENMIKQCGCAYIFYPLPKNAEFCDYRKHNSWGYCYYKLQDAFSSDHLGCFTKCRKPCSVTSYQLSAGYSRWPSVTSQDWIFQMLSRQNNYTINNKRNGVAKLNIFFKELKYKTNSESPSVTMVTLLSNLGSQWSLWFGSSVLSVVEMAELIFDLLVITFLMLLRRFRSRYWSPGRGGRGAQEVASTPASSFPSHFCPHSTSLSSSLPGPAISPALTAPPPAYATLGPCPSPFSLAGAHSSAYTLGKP
T1 sequence (Q95165 1-641): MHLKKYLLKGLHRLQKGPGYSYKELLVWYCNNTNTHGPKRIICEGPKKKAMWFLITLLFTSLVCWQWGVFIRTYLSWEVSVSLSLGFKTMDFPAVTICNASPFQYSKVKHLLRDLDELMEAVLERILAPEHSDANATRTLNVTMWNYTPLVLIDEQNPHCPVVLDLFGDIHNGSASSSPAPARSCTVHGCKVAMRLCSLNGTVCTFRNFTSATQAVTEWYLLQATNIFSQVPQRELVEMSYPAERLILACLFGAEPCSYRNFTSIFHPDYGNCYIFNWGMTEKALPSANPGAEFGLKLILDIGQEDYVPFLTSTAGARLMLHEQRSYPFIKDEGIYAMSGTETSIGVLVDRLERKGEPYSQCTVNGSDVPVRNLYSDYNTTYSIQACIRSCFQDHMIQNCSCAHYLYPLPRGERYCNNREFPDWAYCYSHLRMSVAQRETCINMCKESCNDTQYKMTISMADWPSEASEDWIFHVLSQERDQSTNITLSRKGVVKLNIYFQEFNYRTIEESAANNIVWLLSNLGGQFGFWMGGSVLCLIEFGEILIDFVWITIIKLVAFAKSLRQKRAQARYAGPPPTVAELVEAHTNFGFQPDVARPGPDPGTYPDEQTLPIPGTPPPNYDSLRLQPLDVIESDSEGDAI
Briefly: Sodium channel blocking activity: inhibition of short circuit current (ISC) in airway epithelial monolayers mounted in Ussing chambers. The data set is classed as cell-based, human, dog, sheep or rodent. Conditions: for Fold Amiloride** (PSA 4022 = 100): Cyclic Pyrazinoylguanidines, relative potency for PSA 4022 = 100 using EC50 from PSA 4022 in same run; for EC50: Selected Cyclic Pyrazinoylguanidines (Formula III), mean ± spread. Here is the method: In Vitro Measure of Sodium Channel Blocking Activity and Reversibility
One assay used to assess mechanism of action and/or potency of the compounds of the present invention involves the determination of lumenal drug inhibition of airway epithelial sodium currents measured under short circuit current (ISC) using airway epithelial monolayers mounted in Ussing chambers. Cells obtained from freshly excised human, dog, sheep or rodent airways are seeded onto porous 0.4 micron Snapwell™ Inserts (CoStar), cultured at air-liquid interface (ALI) conditions in hormonally defined media, and assayed for sodium transport activity (ISC) while bathed in Krebs Bicarbonate Ringer (KBR) in Using chambers. All test drug additions are to the lumenal bath with half-log dose addition protocols (from 1×10^−11 M to 3×10^−5 M), and the cumulative change in ISC (inhibition) recorded. All drugs are prepared in dimethyl sulfoxide as stock solutions at a concentration of 1×10^−2 M and stored at −20° C. Eight preparations are typically run in parallel; two preparations per run incorporate amiloride and/or benzamil as positive controls. After the maximal concentration (5×10^−5 M) is administered, the lumenal bath is exchanged three times with fresh drug-free KBR solution, and the resultant ISC measured after each wash for approximately 5 minutes in duration. Reversibility is defined as the percent return to the baseline value for sodium current after the third wash. All data from the voltage clamps are collected via a computer interface and analyzed off-line.
Dose-effect relationships for all compounds are considered and analyzed by the Prism 3.0 program. IC50 values, maximal effective concentrations, and reversibility are calculated and compared to amiloride and benzamil as positive controls.

Counter-ions that a name gives are not always drawn. Like-named read-outs stand apart in the source and are kept apart here. Where only a bound is given, the exact number is not on record here.

The results in this text go back to patent US20050090505A1, “Methods of reducing risk of infection from pathogens” (priority 2003, published 2005).

A word on the melting point: it is the temperature of the solid-liquid transition. Molecule `N=C(NCCOCCOCCN)NC(=O)c1nc(Cl)c(N)nc1N` gave a melting point of 87 to 90 °C. In the case of `CC(C)(C)OC(=O)NCCCCCCCCCCNC(=N)NC(=O)c1nc(Cl)c(N)nc1N`, the melting point lay in the range of 186 to 188 °C.

For the molecule `CC(C)(C)OC(=O)N=C(NCCCCCCCCNC(=N)NC(=O)c1nc(Cl)c(N)nc1N)NC(=O)OC(C)(C)C`, the melting point is 208 to 210 °C (dec.). `CC(C)(C)OC(=O)NCCCCCCCCCCCNC(=N)NC(=O)c1nc(Cl)c(N)nc1N` yielded a melting point of 82 to 84 °C. For the molecule `N=C(NCCCCc1ccc(OCC(=O)NCC(N)=O)cc1)NC(=O)c1nc(Cl)c(N)nc1N` (as salt: HCl) [compound 16314, N-carbamoylmethyl-2-(4-{4-[N′-(3,5-diamino-6-chloropyrazine-2-carbonyl)guanidino]butyl}phenoxy)acetamide], the melting point is 178 to 180 °C (dec.).

In the case of `N=C(N)NCCOCCOCCNC(=N)NC(=O)c1nc(Cl)c(N)nc1N` (as salt: hydrochloride), the melting point was 108 to 112 °C (dec.). `N=C(NCCCOCCCN)NC(=O)c1nc(Cl)c(N)nc1N` (as salt: hydrochloride): the melting point is 164 to 166 °C (dec.).

`N=C(N)NCCCOCCCNC(=N)NC(=O)c1nc(Cl)c(N)nc1N` (as salt: hydrochloride): the melting point is 72 to 75 °C (dec.). Still for that read-out and setting: as for `CN(C)C(=O)COc1ccc(CCCCNC(=N)NC(=O)c2nc(Cl)c(N)nc2N)cc1` (as salt: hydrochloride) [compound 16313, 2-(4-{4-[N-(3,5-diamino-6-chloropyrazine-2-carbonyl)guanidino]-butyl}phenoxy)-N,N-dimethylacetamide hydrochloride], the figure is 130 to 132 °C (dec.); as for `N=C(NCCCCc1ccc(OCC(=O)Nc2ncc[nH]2)cc1)NC(=O)c1nc(Cl)c(N)nc1N` (as salt: hydrochloride) [compound 16437, 2-(4-{4-[N′-(3,5-diamino-6-chloropyrazine-2-carbonyl)guanidino]-butyl}phenoxy)-N-(1H-imidazol-2-yl)acetamide dihydrochloride], 172 to 174 °C; as for `N=C(NCCCCCCN)NC(=O)c1nc(Cl)c(N)nc1N` (as salt: hydrochloride) [compound 18706, N-(6-aminohexyl)-N′-(3,5-diamino-6-chloropyrazine-2-carbonyl)guanidine dihydrochloride], more than 240 °C. Still for that read-out and setting: as for `N=C(N)NCCCCCCCCCNC(=N)NC(=O)c1nc(Cl)c(N)nc1N` (as salt: hydrochloride) [compound 19006, N-{9-[N′-(3,5-diamino-6-chloropyrazine-2-carbonyl)guanidino]nonyl}guanidine dihydrochloride], the figure is 178 to 180 °C; as for `N=C(N)NCCCCCCCNC(=N)NC(=O)c1nc(Cl)c(N)nc1N` (as salt: hydrochloride) [compound 19155, N-{7-[N′-(3,5-diamino-6-chloropyrazine-2-carbonyl)guanidino]heptyl}guanidine dihydrochloride], 140 to 142 °C. Consider `N=C(NCCCCCCCCCN)NC(=O)c1nc(Cl)c(N)nc1N` (as salt: hydrochloride) [compound 19335, N-(9-aminononyl)-N′-(3,5-diamino-6-chloropyrazine-2-carbonyl)-guanidine dihydrochloride], for which the melting point was 155 to 157 °C (dec.). Still for that read-out and setting: as for `N=C(NCCCCCCCCN)NC(=O)c1nc(Cl)c(N)nc1N` (as salt: hydrochloride) [compound 19336, N-(8-aminooctyl)-N′-(3,5-diamino-6-chloropyrazine-2-carbonyl)-guanidine dihydrochloride], the figure is 253 to 255 °C.

Usually EC50 stands for the midpoint of the concentration-response curve. Take `CC(C)(C)OC(=O)NCCCN1CCC(CCCCNC(N)=NC(=O)c2nc(Cl)c(N)nc2N)CC1` [compound 25452, [3-(4-{4-[N′-(3,5-diamino-6-chloropyrazine-2-carbonyl)guanidino]butyl}piperidin-1-yl)propyl]carbamic acid tert-butyl ester]: in data set [1], the “Fold Amiloride** (PSA 4022 = 100)” value came out at 8 ± 1. For the same molecule, in data set [1] (read-out: EC50), the EC50 is 60 ± 6 nM. The corresponding values for `Cl.Cl.Cl.N=C(NCCCCC1CCN(CCN)CC1)NC(=O)c1nc(Cl)c(N)nc1N` [compound 25455, N-{4-[1-(2-Aminoethyl)piperidin-4-yl]butyl}-N′-(3,5-diamino-6-chloropyrazine-2-carbonyl)guanidine trihydrochloride] are 5 ± 1 and 104 ± 32 nM. For `N=C(NCCCCC1CCN(CC(O)CO)CC1)NC(=O)c1nc(Cl)c(N)nc1N` (centres unmarked) [compound 25456, N-(3,5-Diamino-6-chloropyrazine-2-carbonyl)-N′-{4-[1-(2,3-dihydroxypropyl)-piperidin-4-yl]butyl}guanidine] the same measures were 6 ± 2 and 106 ± 34 nM. Take `N=C(NCCCCC1CCN(CCCN)CC1)NC(=O)c1nc(Cl)c(N)nc1N` [compound 25510, N-{4-[1-(3-Aminopropyl)piperidin-4-yl]butyl}-N′-(3,5-diamino-6-chloropyrazine-2-carbonyl)guanidine trihydrochloride]: in data set [1], the “Fold Amiloride** (PSA 4022 = 100)” value was determined as 3 ± 9 and the response was half-maximal at 61 ± 23 nM (EC50). With `CC(C)(C)OC(=O)N=C(NCCCN1CCC(CCCCNC(=N)NC(=O)c2nc(Cl)c(N)nc2N)CC1)NC(=O)OC(C)(C)C` [compound 25569, N-(3,5-Diamino-6-chloropyrazine-2-carbonyl)-N′-{4-[1-(3-[N″,N′″-bis-tert-butoxycarbonyl]guanidinopropyl)piperidin-4-yl]butyl}guanidine], the “Fold Amiloride** (PSA 4022 = 100)” value in data set [1] is recorded as 41 ± 9. The EC50 in data set [1] (read-out: EC50) came out at 16 ± 3 nM. With `Cl.Cl.Cl.N=C(N)NCCCN1CCC(CCCCNC(=N)NC(=O)c2nc(Cl)c(N)nc2N)CC1` [compound 25795, N-(3,5-Diamino-6-chloropyrazine-2-carbonyl)-N′-{4-[1-(3-guanidinopropyl)piperidin-4-yl]butyl}guanidine trihydrochloride], in data set [1], the “Fold Amiloride** (PSA 4022 = 100)” value was 18 ± 7.
